Assay results published in patent US7964630B2, “Topical application agents against mimic and age-related wrinkles” (DSM IP Assets B.V., priority 2004, dated 2011).
Non-standard residues stand in square brackets, D forms with d. Residues, ends and D or L forms follow the SMILES beside them. *: point of attachment. NHPhenethyl = c1ccc(CCN*)cc1; Dap = NC[CH](N)C(=O)O; NHBn = c1ccc(CN*)cc1

Key:
[1] = tested on: co-culture model of human muscle cells and neurons from the spinal marrow of rat embryos; test: Efficacy test: frequency of muscle contractions in a nerve-muscle co-culture model; assay type: cell-based, human (myoblasts), rat (embryo spinal explants); details: for Variation Δ [in %] of the number of muscle contractions (1 min): 1 minute after incubation; for Variation Δ [in %] of the number of muscle contractions (1 min) / Variation Δ [in %] of the number of muscle contractions (2 h) / Variation Δ [in %] of the number of muscle contractions (48 h): contractions counted for 30 seconds, compared to number before incubation, means of 3 measurements; for Variation Δ [in %] of the number of muscle contractions (2 h): 2 hours after incubation; for Variation Δ [in %] of the number of muscle contractions (48 h): 48 hours after incubation
Method: Culture conditions: 37° C., 5% CO2 In order to test the efficacy of the compounds of the present invention, a co-culture model of human muscle cells on one hand and neurons from the spinal marrow of rat embryos on the other hand was established. Normal human muscle cells (myoblasts) were cultured in gelatine-coated 24-well plates until a monolayer of myofibrils (from fused muscle cells) had formed. Afterwards, an explant of the spinal marrow of a 13 day-old rat embryo with dorsal root ganglia was placed on the muscle cell monolayer. After one day of co-culture, the first axons were seen to grow out of the explant to come in contact with muscle cells. The first contractions appeared after 5 days. […] At this stage of development, the myofibrils performed regular contractions and the model was used for the tests.

[2] = tested on: Ca++-dependent neurotransmitter release in the synapses; details: cited from earlier work

Row | Compound | Variation Δ [in %] of the number of muscle contractions (1 min) ([1]; 0.1 mM) [%] | Variation Δ [in %] of the number of muscle contractions (2 h) ([1]; 0.1 mM) [%] | Variation Δ [in %] of the number of muscle contractions (48 h) ([1]; 0.1 mM) [%] | Variation Δ [in %] of the number of muscle contractions (1 min) ([1]; 0.5 mM) [%] | Variation Δ [in %] of the number of muscle contractions (2 h) ([1]; 0.5 mM) [%] | Variation Δ [in %] of the number of muscle contractions (48 h) ([1]; 0.5 mM) [%] | Variation Δ [in %] of the number of muscle contractions (1 min) ([1]; 1.0 mM) [%] | Variation Δ [in %] of the number of muscle contractions (2 h) ([1]; 1.0 mM) [%] | Variation Δ [in %] of the number of muscle contractions (48 h) ([1]; 1.0 mM) [%] | Variation Δ [in %] of the number of muscle contractions (1 min) ([1]; 0.05 mM) [%] | Variation Δ [in %] of the number of muscle contractions (2 h) ([1]; 0.05 mM) [%] | muscle-relaxing effect / activity profile with regard to muscle relaxation ([1]; result in words) | acts weaker than Botox (factor) [2] [times]
1 | CC(N)C(=O)N1CCCC1C(=O)NC(CCCNC(=N)N)C(=O)NCc1ccccc1 (stereo not drawn) [4.2] (H-Ala-Pro-Arg-NHBn; configuration not given here) | 85 | 78 | 37 | 93 | 37 | 36 | 85 | 12 | 60 |  |  |  | 
2 | CC(N)C(=O)N1CCCC1C(=O)NC(CCCNC(=N)N)C(=O)NC(CCCNC(=N)N)C(=O)NCc1ccccc1 (stereo not shown) [4.3] (H-APRR-NHBn; configuration not given here) | 91 | 5 | 88 | 73 | 1 | 87 | 25 | 0 | 7 |  |  |  | 
3 | N=C(N)NCCCC(NC(=O)C1CCCN1C(=O)C(N)CN)C(=O)NCc1ccccc1 (stereo not drawn) [4.6] (H-[Dap]-Pro-Arg-NHBn; configuration not given here) | 85 | 68 | 43 | 78 | 42 | 0 | 68 | 35 | 0 |  |  |  | 
4 | CC(N)C(=O)N1CCCC1C(=O)NC(CCCNC(=N)N)C(=O)NCCc1ccccc1 (stereo not drawn) [4.7] (H-Ala-Pro-Arg-NHPhenethyl; configuration not given here) | 103 | 69 | 74 | 91 | 0 | 34 | 105 | 65 | 3 |  |  |  | 
5 | COc1ccc(CNC(=O)C(CCCNC(=N)N)NC(=O)C2CCCN2C(=O)C(C)N)cc1 (stereo not shown) [4.8] | 85 | 37 | 132 | 84 | 90 | 78 | 100 | 58 | 32 |  |  |  | 
6 | C[C@H](N=C(N(C)C)N(C)C)C(=O)N1CCC[C@@H]1C(=O)N[C@@H](CCCNC(=N)N)C(=O)NCc1ccccc1 [4.11] | 105 | 75 | 96 | 105 | 16 | 22 | 104 | 7 | 0 |  |  |  | 
7 | CSCC[C@H](NC(=O)[C@H](CCC(=O)O)NC(=O)[C@H](CCC(=O)O)NC(C)=O)C(=O)N[C@@H](CCC(N)=O)C(=O)N[C@@H](CCCNC(=N)N)C(=O)N[C@@H](CCCNC(=N)N)C(N)=O [Product A, Ac-Glu-Glu-Met-Gln-Arg-Arg-NH2, reference compound] (Ac-EEMQRR-NH2) | 103 | 120 |  | 106 | 91 |  | 99 | 88 |  | 103 | 96 | too weak and too inconstant | 5000
